Test results as given in US12655116B2, “Substituted isophthalic acid diamides” (Bayer Aktiengesellschaft, priority 2020, dated 2026).

Assays:
ALOMY [1] = test: Post-emergence herbicidal action against ALOMY; format: in vivo, Alopecurus myosuroides; details: visual assessment about 3 weeks after treatment vs untreated controls
How it was run: (§1)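 A WP or EC formulation diluted in water with 0.2% wetting agent was sprayed at 600 to 800 l/ha onto one-leaf-stage plants grown in sandy loam. About 3 weeks later, action was rated visually in percent, 100% being dead plants.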

ABUTH [2] = test: Pre-emergence herbicidal action against ABUTH; format: in vivo, Abutilon theophrasti; details: for Pre-emergence action against ABUTH (herbicidal activity): 80 g/ha, scored visually after 3 weeks vs untreated controls (100% = plants have died, 0% = like control plants); for Pre-emergence action against ABUTH (herbicidal activity in percent): dosage 20 g/ha, scored visually after 3 weeks vs untreated controls, 100% = plants have died, 0% = like control plants
How it was run: (§2)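 Greenhouse pots of sandy loam held seeds covered with soil, onto which the compound was applied before emergence. An aqueous suspension or emulsion of WP or EC was used at 600 to 800 l/ha with 0.2% wetting agent. Percent damage was judged visually at 3 weeks.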

SETVI [3] = test: Post-emergence herbicidal action against SETVI; format: in vivo, Setaria viridis; details: dosage 20 g/ha
How it was run: as §1

VIOTR [4] = test: Post-emergence herbicidal action against VIOTR; format: in vivo, Viola tricolor; details: 20 g/ha
How it was run: as §1

ALOMY [5] = test: Pre-emergence herbicidal action against ALOMY; format: in vivo, Alopecurus myosuroides; details: 80 g/ha, pre-emergence, scored visually after 3 weeks vs untreated controls (100% = plants have died, 0% = like control plants)
How it was run: as §2

ECHCG [6] = test: Post-emergence herbicidal action against ECHCG; format: in vivo, Echinochloa crus-galli
How it was run: as §1

DIGSA [7] = test: Post-emergence herbicidal action against DIGSA; format: in vivo, Digitaria sanguinalis; details: 20 g/ha
How it was run: as §1

VIOTR [8] = test: Pre-emergence herbicidal action against VIOTR; format: in vivo, Viola tricolor
How it was run: as §2

PHBPU [9] = test: Post-emergence herbicidal action against PHBPU; format: in vivo, Pharbitis purpurea
How it was run: as §1

AMARE [10] = test: Pre-emergence herbicidal action against AMARE; format: in vivo, Amaranthus retroflexus
How it was run: as §2

SETVI [11] = test: Pre-emergence herbicidal action against SETVI; format: in vivo, Setaria viridis; details: dosage 80 g/ha
How it was run: as §2

VERPE [12] = test: Post-emergence herbicidal action against VERPE; format: in vivo, Veronica persica; details: 20 g/ha
How it was run: as §1

LOLRI = test: Pre-emergence herbicidal action against LOLRI; format: in vivo, Lolium rigidum; details: 80 g/ha
How it was run: as §2

AMARE [13] = test: Post-emergence herbicidal action against AMARE; format: in vivo, Amaranthus retroflexus; details: 20 g/ha, visual assessment about 3 weeks after treatment, 100% = plants have died, 0% = like control plants
How it was run: as §1

MATIN = test: Pre-emergence herbicidal action against MATIN; format: in vivo, Matricaria inodora
How it was run: as §2

POLCO = test: Pre-emergence herbicidal action against POLCO; format: in vivo, Polygonum convolvulus; details: dosage 80 g/ha
How it was run: as §2

ABUTH [14] = test: Post-emergence herbicidal action against ABUTH; format: in vivo, Abutilon theophrasti; details: dosage 20 g/ha, visual assessment about 3 weeks after treatment vs untreated controls
How it was run: as §1

VERPE [15] = test: Pre-emergence herbicidal action against VERPE; format: in vivo, Veronica persica; details: dosage 80 g/ha
How it was run: as §2

ECHCG [16] = test: Pre-emergence herbicidal action against ECHCG; format: in vivo, Echinochloa crus-galli; details: 80 g/ha
How it was run: as §2

DIGSA [17] = test: Pre-emergence herbicidal action against DIGSA; format: in vivo, Digitaria sanguinalis
How it was run: as §2

PHBPU [18] = test: Pre-emergence herbicidal action against PHBPU; format: in vivo, Pharbitis purpurea
How it was run: as §2

[19] = 20 g/ha, scored visually after 3 weeks vs untreated controls, 100% = plants have died, 0% = like control plants
[20] = 80 g/ha, scored visually after 3 weeks vs untreated controls (100% = plants have died, 0% = like control plants)

Row | SMILES | Post-emergence action against ALOMY in % (ALOMY [1]; dosage 20 g/ha) | Pre-emergence action against ABUTH (herbicidal activity) (ABUTH [2]) | Pre-emergence action against ABUTH (herbicidal activity in percent) (ABUTH [2]) | Post-emergence action against SETVI in % (SETVI [3]) | Pre-emergence action against ALOMY (herbicidal activity) (ALOMY [5]) | Post-emergence action against ECHCG in % (ECHCG [6]; dosage 5 g/ha) | Post-emergence action against ECHCG in % (ECHCG [6]; dosage 20 g/ha) | Pre-emergence action against VIOTR in % (VIOTR [8]; dosage 80 g/ha) | Post-emergence action against PHBPU in % (PHBPU [9]; dosage 5 g/ha) | Post-emergence action against PHBPU in % (PHBPU [9]; dosage 20 g/ha) | Pre-emergence action against AMARE in % (AMARE [10]; [19]) | Pre-emergence action against AMARE in % (AMARE [10]; [20]) | Pre-emergence action against SETVI in % (SETVI [11]) | Pre-emergence action against LOLRI in % (LOLRI) | Post-emergence action at 20 g/ha against AMARE in % (AMARE [13]) | Pre-emergence action against MATIN in % (MATIN; dosage 20 g/ha) | Pre-emergence action against MATIN in % (MATIN; dosage 80 g/ha) | Pre-emergence action against POLCO in % (POLCO) | Pre-emergence action against VERPE in % (VERPE [15]) | Pre-emergence action against ECHCG in % (ECHCG [16]) | other results
1 | Cc1c(C(=O)Nc2nnnn2C)ccc(C(F)F)c1C(=O)NCC1CC1 [Example 1-47] | 90% | 100% | 100% | 80% | 90% | 90% | 90% | 100% | 80% | 90% | 100% | 100% | 100% | 80% | 90% | 80% | 100% | 100% | 100% | 100% | Post-emergence action against ALOMY in % (ALOMY [1]; dosage 5 g/ha): 80%; Post-emergence action against VIOTR in % (VIOTR [4]): 80%; Post-emergence action against DIGSA (DIGSA [7]): 90%; Post-emergence action against VERPE in % (VERPE [12]): 80%; Post-emergence action against ABUTH in % (ABUTH [14]): 80%; Pre-emergence action against DIGSA in % (DIGSA [17]; dosage 20 g/ha): 100%; Pre-emergence action against DIGSA in % (DIGSA [17]; dosage 80 g/ha): 100%
2 | COCCNC(=O)c1c(C(F)(F)F)ccc(C(=O)Nc2nnnn2C)c1Cl [Example 1-138] | 90% | 100% | 100% | 80% | 90% | 80% | 90% | 100% | 80% | 90% | 100% | 100% | 100% | 90% | 90% | 90% | 100% | 90% | 90% | 100% | Pre-emergence action against VIOTR in % (VIOTR [8]; dosage 20 g/ha): 100%; Pre-emergence action against PHBPU in % (PHBPU [18]; dosage 20 g/ha): 80%; Pre-emergence action against PHBPU in % (PHBPU [18]; dosage 80 g/ha): 90%; Pre-emergence action against DIGSA in % (DIGSA [17]; dosage 20 g/ha): 100%; Pre-emergence action against DIGSA in % (DIGSA [17]; dosage 80 g/ha): 100%
